Experimental data reported in EP4603105A1, “PHARMACEUTICAL COMPOSITION CONTAINING CYCLIC COMPOUND HAVING SELECTIVE KRAS INHIBITORY EFFECT AGAINST HRAS AND NRAS” (CHUGAI SEIYAKU KABUSHIKI KAISHA, priority 2022, dated 2024).
Like-named read-outs stand apart in the source and are kept apart here.

What was measured:
[1] = target: GDP-bound KRAS wild-type protein (Homo sapiens, UniProt P01116); assay: Binding to KRAS by surface plasmon resonance (SPR), dissociation constant KD
Method in brief: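 Affinity is measured by surface plasmon resonance at 30°C against captured, GDP-loaded RAS carrying a biotinylated Avi tag. Compounds are titrated by single-cycle kinetics, and KD comes from a 1:1 fit.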

[2] = target: GDP-bound NRAS wild-type protein (Homo sapiens, UniProt P01111); assay: Binding to NRAS by surface plasmon resonance (SPR), KD and KD ratio to KRAS
Method in brief: (§1)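 Recombinant RAS proteins bearing a biotinylated Avi tag and loaded with GDP served as the captured ligand, recaptured fresh every cycle. Binding responses were referenced to an uncoated surface and a buffer-only blank cycle. Dissociation constants were obtained by 1:1 model fitting at 30°C.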

[3] = target: HRAS wild-type protein (Homo sapiens, UniProt P01112); assay: Binding to HRAS by surface plasmon resonance (SPR), KD and KD ratio to KRAS
Method in brief: as §1

[4] = system: human lung cancer strain NCI-H441; assay: NCI-H441 cell proliferation inhibitory activity (CellTiter-Glo, 4 days); format: cell-based; details: read-out: NCl-H441 IC50
Method in brief: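 Signal came from […] measured per well once the reagent was added. Beforehand, cells were cultured at 37°C and 5% carbon dioxide on a compound series serially diluted in dimethyl sulfoxide.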

[5] = ratio of KD for GDP-bound NRAS wild-type protein to KD for KRAS
[6] = ratio of KD for HRAS wild-type protein to KD for KRAS
[7] = Single Cycle Kinetics, 1:1 binding model
[8] = ratio of KD with respect to GDP-bound NRAS wild-type protein to KD with respect to KRAS
[9] = ratio of KD with respect to HRAS wild-type protein to KD with respect to KRAS
[10] = 50% proliferation inhibitory concentration, four days

Chain of GDP-bound KRAS wild-type protein (P01116 1-188 isoform P01116-2): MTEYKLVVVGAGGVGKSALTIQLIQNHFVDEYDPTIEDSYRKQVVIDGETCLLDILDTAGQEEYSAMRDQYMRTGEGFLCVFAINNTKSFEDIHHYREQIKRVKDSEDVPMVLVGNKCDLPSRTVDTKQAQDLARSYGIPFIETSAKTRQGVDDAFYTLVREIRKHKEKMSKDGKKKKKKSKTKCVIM
Chain of GDP-bound NRAS wild-type protein (P01111 whole entry): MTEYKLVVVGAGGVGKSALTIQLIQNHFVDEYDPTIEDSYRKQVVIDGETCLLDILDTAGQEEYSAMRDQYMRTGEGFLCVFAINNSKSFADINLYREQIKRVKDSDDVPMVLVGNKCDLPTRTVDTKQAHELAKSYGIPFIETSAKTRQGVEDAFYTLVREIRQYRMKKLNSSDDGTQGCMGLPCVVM
Chain of HRAS wild-type protein (P01112 whole entry): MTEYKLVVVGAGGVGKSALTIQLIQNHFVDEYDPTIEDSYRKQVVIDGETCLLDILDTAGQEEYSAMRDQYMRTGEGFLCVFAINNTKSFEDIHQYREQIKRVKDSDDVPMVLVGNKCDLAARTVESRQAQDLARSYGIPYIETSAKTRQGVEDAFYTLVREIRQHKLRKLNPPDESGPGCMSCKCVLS

Row | SMILES | Kd ([1]; Single Cycle Kinetics) | NRAS /KRAS [2, 5] | HRAS /KRAS [3, 6] | IC50 ([4]; NCI-H441 cells, 4 days) | Kd [1, 7] | NRAS /KRAS [2, 8] | HRAS /KRAS [3, 9] | IC50 [4, 10] | Kd ([1]; 1:1 binding model)
1 | CCC[C@H]1C(=O)N[C@@H]([C@@H](C)CC)C(=O)N2CCC[C@H]2C(=O)N(C)[C@H]2C/C=C\CCN(C2=O)[C@@H](Cc2ccc(C)cc2)C(=O)N(C)CC(=O)N[C@@H](CCc2cc(F)c(C(F)(F)F)c(F)c2)C(=O)N2C[C@H](OCC)C[C@H]2C(=O)NC2(CCCC2)C(=O)N(C)[C@@H](C2CCCC2)C(=O)N(C)[C@H](C(=O)N(C)C)CC(=O)N1C [PP3480] | 0.49 nM | A (a compound having 10 or more and less than 20 is denoted as A) | A (a compound having 10 or more and less than 20 is denoted as A) | 12.9 nM |  |  |  |  | 
2 | CCO[C@@H]1C[C@H]2C(=O)NC3(CCC3)C(=O)N(C)[C@@H](C3CCCC3)C(=O)N(C)[C@H](C(=O)N3CCC3)CC(=O)N(C)[C@@H](CC)C(=O)N[C@@H]([C@@H](C)CC)C(=O)N(C)CC(=O)N(C)[C@H]3C/C=C\CCN(C3=O)[C@@H](CC3CCCCC3)C(=O)N(C)CC(=O)N[C@@H](CCc3cc(F)c(C(F)(F)F)c(F)c3)C(=O)N2C1 [PP1445] |  |  |  |  | 0.27 nM | A (a compound having 10 or more and less than 20 is denoted as A) | A (a compound having 10 or more and less than 20 is denoted as A) | 92.8 nM | 
3 | CCO[C@@H]1C[C@H]2C(=O)NC3(CCCC3)C(=O)N(C)[C@@H](C3CCCC3)C(=O)N(C)[C@H](C(=O)N(C)C)CC(=O)N(C)[C@@H](CC3CC3)C(=O)N[C@@H]([C@@H](C)CC)C(=O)N(C)CC(=O)N(C)[C@H]3C[C@@H](C)[C@@H](C)CN(C3=O)[C@@H](Cc3ccc(C(F)(F)F)cc3)C(=O)N(C)CC(=O)N[C@@H](CCc3ccc(C(F)(F)F)c(Cl)c3)C(=O)N2C1 [PP1362] |  |  |  |  | 0.037 nM | A (a compound having 10 or more and less than 20 is denoted as A) | B (a compound having 3 or more and less than 10 is denoted as B) | 3.7 nM | 
4 | CC[C@H](C)[C@@H]1NC(=O)[C@H](COC)N(C)C(=O)C[C@@H](C(=O)N(C)C)N(C)C(=O)[C@H](C2CCCC2)N(C)C(=O)C2(CC(C)(C)C2)NC(=O)[C@@H]2C[C@@H](OC(C)C)CN2C(=O)[C@H](CCc2ccc(Cl)c(Cl)c2)NC(=O)CN(C)C(=O)[C@H](CC2CCCCC2)N2CC/C=C\C[C@@H](C2=O)N(C)C(=O)CN(C2CC2)C1=O [PP2513] |  | A (a compound having 10 or more and less than 20 is denoted as A) | A (a compound having 10 or more and less than 20 is denoted as A) | 303 nM |  |  |  |  | 2.6 nM
5 | CC[C@H](C)[C@@H]1NC(=O)[C@H](CC)N(C)C(=O)C[C@@H](C(=O)N(C)C)N(C)C(=O)[C@H](C2CCCC2)N(C)C(=O)C2(CCC2)NC(=O)[C@@H]2C[C@H](C)CN2C(=O)[C@H](CCc2cc(F)c(C(F)(F)F)c(F)c2)NC(=O)CN(C)C(=O)[C@H](CC2CCCCC2)N2CC/C=C\C[C@@H](C2=O)N(C)C(=O)CN(C)C1=O [PP1471] |  |  |  |  | 0.25 nM | A (a compound having 10 or more and less than 20 is denoted as A) | A (a compound having 10 or more and less than 20 is denoted as A) | 48.2 nM | 
6 | CCCO[C@H](C)[C@@H]1NC(=O)[C@H](COCC)N(C)C(=O)C[C@@H](C(=O)N(C)CC)N(C)C(=O)[C@H](C2CCCC2)N(C)C(=O)C2(CC(C)(C)C2)NC(=O)[C@@H]2C[C@@H](OCC)CN2C(=O)[C@H](CCc2cc(F)c(C(F)(F)F)c(F)c2)NC(=O)CN(C)C(=O)[C@H](Cc2ccc(C)cc2)N2CC/C=C\C[C@@H](C2=O)N(C)C(=O)[C@@H]2CCCN2C1=O [PP2436] |  | A (a compound having 10 or more and less than 20 is denoted as A) | A (a compound having 10 or more and less than 20 is denoted as A) | 126 nM |  |  |  |  | 1.6 nM
7 | CCC[C@H]1C(=O)N[C@@H]([C@@H](C)CC)C(=O)N(C)CC(=O)N(C)[C@H]2C/C=C\CCN(C2=O)[C@@H](Cc2ccc(C(F)(F)F)cc2)C(=O)N(C)CC(=O)N[C@@H](CCc2cc(F)c(Cl)c(F)c2)C(=O)N2C[C@H](OCC)C[C@H]2C(=O)NC2(CCC2)C(=O)N(C)[C@@H](C(CC)CC)C(=O)N(C)[C@H](C(=O)N(C)C)CC(=O)N1C [PP1231] |  |  |  |  | 0.56 nM | AA (a compound having 20 or more is denoted as AA) | A (a compound having 10 or more and less than 20 is denoted as A) | 23.1 nM | 
8 | CCCO[C@@H]1C[C@H]2C(=O)NC3(CC(C)(C)C3)C(=O)N(C)[C@@H](C3CCCC3)C(=O)N(C)[C@H](C(=O)N(C)CC)CC(=O)N(C)[C@@H](COCC)C(=O)N[C@@H]([C@@H](C)CC)C(=O)N(C3CC3)CC(=O)N(C)[C@H]3C/C=C\CCN(C3=O)[C@@H](Cc3ccc(C)cc3)C(=O)N(C)CC(=O)N[C@@H](CCc3cc(F)c(C(F)(F)F)c(F)c3)C(=O)N2C1 [PP3458] | 0.82 nM | A (a compound having 10 or more and less than 20 is denoted as A) | A (a compound having 10 or more and less than 20 is denoted as A) | 28.8 nM |  |  |  |  | 
9 | CCOC[C@H]1C(=O)N[C@@H]([C@@H](C)CC)C(=O)N(C)CC(=O)N(C)[C@H]2C/C=C\CCN(C2=O)[C@@H](Cc2ccc(C)cc2)C(=O)N(C)CC(=O)N[C@@H](CCc2cc(F)c(C(F)(F)F)c(F)c2)C(=O)N2C[C@H](OCC)C[C@H]2C(=O)NC2(CC(C)(C)C2)C(=O)N(C)[C@@H](C2CCCC2)C(=O)N(C)[C@H](C(=O)N(C)C)CC(=O)N1C [PP2397] |  | A (a compound having 10 or more and less than 20 is denoted as A) | A (a compound having 10 or more and less than 20 is denoted as A) | 4.7 nM |  |  |  |  | 0.051 nM
10 | CCO[C@@H]1C[C@H]2C(=O)NC3(CCCC3)C(=O)N(C)[C@@H](C3CCCC3)C(=O)N(C)[C@H](C(=O)N(C)C)CC(=O)N(C)[C@@H](CC(C)C)C(=O)N[C@@H]([C@@H](C)CC)C(=O)N(C)CC(=O)N(C)[C@H]3C/C=C\CCN(C3=O)[C@@H](CC3CCC(F)(F)CC3)C(=O)N(C)CC(=O)N[C@@H](CCc3cc(F)c(C(F)(F)F)c(F)c3)C(=O)N2C1 [PP1459] |  |  |  |  | 0.2 nM | A (a compound having 10 or more and less than 20 is denoted as A) | A (a compound having 10 or more and less than 20 is denoted as A) | 38.6 nM | 
11 | C=C(C)C[C@H]1C(=O)N(C)[C@H](C(=O)N(C)C)CC(=O)N(C)[C@@H](CC(C)C)C(=O)N[C@@H]([C@@H](C)CC)C(=O)N(C)CC(=O)N(C)[C@H]2C/C=C\CCN(C2=O)[C@@H](Cc2ccc(C)cc2)C(=O)N(C)CC(=O)N[C@@H](CCc2ccc(C(F)(F)F)c(OC)c2)C(=O)N2C[C@H](OCC)C[C@H]2C(=O)N(C)C2(CCC2)C(=O)N1C [PP3345] | 0.86 nM | A (a compound having 10 or more and less than 20 is denoted as A) | A (a compound having 10 or more and less than 20 is denoted as A) | 58.3 nM |  |  |  |  | 
12 | CCO[C@H](C)[C@@H]1NC(=O)[C@H](CC(C)C)N(C)C(=O)C[C@@H](C(=O)N(C)CC)N(C)C(=O)[C@H](C2CCCC2)N(C)C(=O)C2(CC(C)(C)C2)NC(=O)[C@@H]2C[C@H](C)CN2C(=O)[C@H](CCc2cc(F)c(C(F)(F)F)c(F)c2)NC(=O)CN(C)C(=O)[C@H](Cc2ccc(C)cc2)N2CC/C=C\C[C@@H](C2=O)N(C)C(=O)CN(C)C1=O [PP2414] |  | A (a compound having 10 or more and less than 20 is denoted as A) | A (a compound having 10 or more and less than 20 is denoted as A) | 9.8 nM |  |  |  |  | 0.33 nM
13 | CCO[C@@H]1C[C@H]2C(=O)NC3(CCC3)C(=O)N(C)[C@@H](C(CC)CC)C(=O)N(C)[C@H](C(=O)N(C)C)CC(=O)N(C)[C@@H](CC3CCCC3)C(=O)N[C@@H]([C@@H](C)CC)C(=O)N(C)CC(=O)N(C)[C@H]3C/C=C\CCN(C3=O)[C@@H](CC3CCC(F)(F)CC3)C(=O)N(C)CC(=O)N[C@@H](CCc3cc(F)c(C(F)(F)F)c(F)c3)C(=O)N2C1 [PP1431] |  |  |  |  | 0.57 nM | AA (a compound having 20 or more is denoted as AA) | A (a compound having 10 or more and less than 20 is denoted as A) | 41.2 nM | 
14 | CCCOC[C@H]1C(=O)N[C@@H]([C@@H](C)CC)C(=O)N(C)CC(=O)N(C)[C@H]2C/C=C\CCN(C2=O)[C@@H](CC2CCC(F)(F)CC2)C(=O)N(C)CC(=O)N[C@@H](CCc2ccc(C(F)(F)F)c(OC)c2)C(=O)N2C[C@H](OCC)C[C@H]2C(=O)NC2(CC(C)(C)C2)C(=O)N(C)[C@@H](C(CC)CC)C(=O)N(C)[C@H](C(=O)N(C)C)CC(=O)N1C [PP2464] |  | A (a compound having 10 or more and less than 20 is denoted as A) | A (a compound having 10 or more and less than 20 is denoted as A) | 66 nM |  |  |  |  | 0.98 nM
15 | CCCO[C@@H]1C[C@H]2C(=O)NC3(CC(C)(C)C3)C(=O)N(C)[C@@H](C3CCCC3)C(=O)N(C)[C@H](C(=O)N(C)CC)CC(=O)N(C)[C@@H](COCC)C(=O)N[C@@H]([C@@H](C)CC)C(=O)N3C[C@@H](C)C[C@H]3C(=O)N(C)[C@H]3C/C=C\CCN(C3=O)[C@@H](Cc3ccc(C(F)(F)F)cc3)C(=O)N(C)CC(=O)N[C@@H](CCc3cc(F)c(C(F)(F)F)c(F)c3)C(=O)N2C1 [PP3472] | 3 nM | A (a compound having 10 or more and less than 20 is denoted as A) | A (a compound having 10 or more and less than 20 is denoted as A) | 24.3 nM |  |  |  |  | 
